Data reported in patent US20060183794A1, “Drug composition containing nf-kb inhibitor” (priority 2002, published 2006).

Assays:
[1] = tested on: normal peripheral blood mononuclear cells; assay: MTT assay, normal peripheral blood mononuclear cells; type: cell-based, human
Protocol: Mononuclear cells were isolated from normal peripheral blood and DHM2EQ was added at final concentrations of 2, 5, and 10 μg/ml, followed by 72-hour incubation. The proliferation-inhibitory effect was examined by the MTT assay. Cells to which the solvent DMSO had been added in equal volume (0 μg/ml) were used as controls. The cell viability was represented as the ratio to the MTT value of the controls (DHM2EQ-untreated) by letting it=100%.
Next, to investigate the inhibitory effect of DHMEQ on proliferation of cells of multiple myeloma (MM) patients, MM cells (MM1, MM2, and MM3) were isolated from patients' bone marrow, incubated for 48 hours at the DHMEQ concentration of 10 μg/ml, and the proliferation-inhibitory effect was examined by the MTT assay. Peripheral blood mononuclear cells (PBMC) isolated from normal peripheral blood were used as control cells. In the figure, the vertical axis indicates the relative values of the MTT values of treated cells versus untreated cells, i.e., (DHMEQ-treated/untreated)×100%.

[2] = tested on: Hodgkin's lymphoma cell lines KMH-2 and L-540; assay: MTT assay, proliferation of Hodgkin's lymphoma cell lines; type: cell-based
Protocol: Cells from the ATL cell lines (MT-1 and TL-Om1) and a control cell line (K562) were plated in 96-well plates at 1×10^5 cells/well and DHM2EQ was added at the desired final concentrations (2, 5, and 10 μg/ml). Cells to which the solvent DMSO had been added in equal volume (0 μg/ml) were used as […] incubation for 72 hours, cell viability was judged by the MTT assay. Relative MTT values were obtained as the ratio of the MMT values of DHM2EQ-treated cells to those of DHM2EQ-untreated cells, i.e., (MTT values of DHM2EQ-treated cells/MTT values of DHM2EQ-untreated cells)×100(%).
DHM2EQ was added to the ATL cell lines (MT-1 and TL-Om1) and a control cell line (K562) at a final concentration of 10 μg/ml and the cells were incubated for 12, 24, 48, and 72 hours. The proliferation-inhibitory effect was examined by the MTT assay. Cells to which the solvent DMSO had been added in equal volume were used as controls. Relative MTT values were obtained in the same manner as the aforementioned (1).
Time-course analysis and concentration dependence analysis of the inhibitory effect of DHM2EQ on proliferation of Hodgkin's lymphoma cells were performed in the same manner as in Example 2. As Hodgkin's lymphoma cells, the Hodgkin's lymphoma cell lines KMH-2 and L-540 were used.

[3] = tested on: human breast cancer cell line MCF-7; assay: In vitro proliferation of MCF-7 (trypan blue cell count); type: cell-based
Protocol: The human breast cancer cell line MCF-7 (NF-κB non-constitutively activated tumor) was incubated in 24, 48, and 72 hours in the presence of 10 and 50 μg/ml DHMEQ, and the proliferation-suppressive effect was examined.
MCF-7 was plated in 6 well plates at 1×10^5/well. The next day, the culture media were changed into those (5 ml) containing DHMEQ at 10 and 50 μg/ml and into the control medium (5 ml) containing only DMSO, which is used for dissolution of DHMEQ, in equal amount to those containing each concentration of DHMEQ. The assay was performed in three wells per each group. Immediately after the change, cells were incubated for 24, 48, and 72 hours. Subsequently, the cells were scraped with trypsin+EDTA. The number of cells was counted with trypan blue and averages as well as standard deviations were calculated. Data for each group were obtained and plotted in comparison with the control cells treated with DMSO only.

NF-κB = NF-κB (Homo sapiens, UniProt P19838+Q04206); assay: Gel shift assay of NF-κB/DNA binding in TNF-α-treated MCF-7 cells; type: cell-based; design: endogenous in cells; host or cells: MCF-7 cells treated with TNF-α; conditions: 30 min
Sequence of NF-κB (Q04206 whole entry): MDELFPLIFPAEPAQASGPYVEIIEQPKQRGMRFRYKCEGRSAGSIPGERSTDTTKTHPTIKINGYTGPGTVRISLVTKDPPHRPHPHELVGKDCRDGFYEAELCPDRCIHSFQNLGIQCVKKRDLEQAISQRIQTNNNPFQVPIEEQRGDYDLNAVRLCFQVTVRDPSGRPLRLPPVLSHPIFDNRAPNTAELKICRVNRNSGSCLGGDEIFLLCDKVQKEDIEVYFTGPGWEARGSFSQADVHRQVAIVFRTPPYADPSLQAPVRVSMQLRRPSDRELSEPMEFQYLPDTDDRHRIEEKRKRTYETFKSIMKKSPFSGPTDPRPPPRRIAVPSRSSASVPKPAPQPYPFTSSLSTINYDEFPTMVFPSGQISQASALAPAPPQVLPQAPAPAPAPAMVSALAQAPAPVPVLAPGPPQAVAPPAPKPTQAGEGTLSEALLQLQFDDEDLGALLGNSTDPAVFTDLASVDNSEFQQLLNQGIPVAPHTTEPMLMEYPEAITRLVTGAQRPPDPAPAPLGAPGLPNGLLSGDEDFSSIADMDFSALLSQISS
Sequence of NF-κB (P19838 1-433 limits assumed): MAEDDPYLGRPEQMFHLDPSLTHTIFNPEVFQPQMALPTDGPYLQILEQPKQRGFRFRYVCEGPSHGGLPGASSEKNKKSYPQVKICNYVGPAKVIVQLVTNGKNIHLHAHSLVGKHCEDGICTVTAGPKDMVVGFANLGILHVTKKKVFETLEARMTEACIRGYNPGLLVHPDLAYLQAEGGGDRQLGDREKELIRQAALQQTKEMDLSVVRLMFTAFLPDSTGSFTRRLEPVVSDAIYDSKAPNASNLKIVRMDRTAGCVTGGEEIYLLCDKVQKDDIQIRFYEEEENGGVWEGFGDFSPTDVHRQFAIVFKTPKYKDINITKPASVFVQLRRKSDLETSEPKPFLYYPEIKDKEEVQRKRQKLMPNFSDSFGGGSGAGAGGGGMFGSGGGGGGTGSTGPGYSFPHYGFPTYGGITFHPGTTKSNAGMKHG
Protocol: MCF-7 cells (endowed by Professor Adrian L. Harriswere, Oxford University) were plated in portions of 4 ml at 1×10^5 cells/ml in […] (2 dishes per condition). On the next day, the culture medium in the 60 mm dishes was adjusted to 2 ml, treated with DHMEQ prepared at 1, 3, and 10 μg/ml for 2 hours, and subsequently, with TNF-α at 20 ng/ml. The culture medium in 60 mm dishes was extracted with a sucker 30 min after TNF-α treatment, cells were washed twice with PBS− for external application, 1 ml of cold PBS− was added, the cells were scraped with a rubber policeman (twice), and transferred to a 15 ml centrifuge tube. Cells were collected from two 60 mm dishes into a 15 ml centrifuge tube, centrifuged at 1,000 rpm for 5 min, and the supernatant was removed. To this, 700 μl of cold PBS− was added. […] The following operations were performed in ice. […] Next, collected nuclei were suspended in 40 μl buffer C (20 mM HEPES-KOH: pH7.9 […] 25% glycerol, 420 mM NaCl, 1.5 mM MgCl2, 0.2 mM EDTA, 0.5 mM DTT, 0.2 mM PMSF) and allowed to stand for 20 min. […]
Next, a Nick column was installed in the stand and a waste-liquid bottle was placed under the column. […] The column, fraction 1, and fraction 2 were measured individually with a Geiger counter and the readings confirmed fraction 2>the column>fraction 1. […]

## O=C(NC1=CC(=O)C2OC2C1O)c1ccccc1O (stereo not shown) [DHMEQ, 5,6-epoxy-4-hydroxy-3-salicyloylamino-2-cyclohexenone]
[1]; 2, 5, 10 μg/ml, 72 hours
  proliferation of normal peripheral blood mononuclear cells (MTT): almost no inhibitory effect
[1]; PBMC control, 10 μg/ml, 48 hours
  influence on peripheral blood mononuclear cells (MTT): almost no influence
[2]
  cell proliferation, concentration dependence: inhibited in proportion to the DHM2EQ concentrations added
  cell proliferation, time course: inhibited in proportion to the DHM2EQ treatment time
[3]; 10 μg/ml, 24 hours
  cells survived compared with the control: 39%
[3]; 10 μg/ml, 48 hours
  cells survived compared with the control: 25%
[3]; 10 μg/ml, 72 hours
  cells survived compared with the control: 17%
[3]; 50 μ/ml, in and after 24 hours
  cells survived compared with the control: no cells were observed to survive
NF-κB; DHMEQ 10 μg/ml, TNF-α 20 ng/ml
  binding between NF-κB and DNA: completely inhibited
NF-κB; DHMEQ 1, 3, 10 μg/ml for 2 hours, then TNF-α 20 ng/ml
  binding between NF-κB and DNA: concentration-dependently inhibited
